Experiments:
Type in all cases: cell-based
HCI-039 PDxO cells = assay: QPI on cells from patient-derived organoid HCI-039 (pleural effusion); details: HCI-039
Protocol: In some embodiments, the QPI microscope system 110 performs QPI on cells from patient-derived organoids and direct-from-patient samples. For example, the electronic controller 155 analyzes data on cells from a set of 5 organoids representing samples collected from two patients, as illustrated by a workflow 3400 in FIG. 24. The workflow 3400 is an experiment workflow illustrating how assays are analyzed by the QPI microscope system 110. In some embodiments, the QPI microscope system 110 images cells for 48 h, and uses an automatic segmentation algorithm, via the electronic controller 155, to identify individual cells from background, as shown in images 3405 and 3410 of FIG. 24. […] The electronic controller 155 determines the mass of each cell by summing the cell mass over the segmented area. In some embodiments, plots of mass over time reveal single cell growth rates, as shown by graph 3415 of FIG. 24. The graph 3415 is a mass vs. time plot showing DMSO treated cells growing cells at a typical location. Cells outlined in green are shown as green on the plot, other growing cells are shown in purple. The electronic controller 155 determine the specific growth rate (SGR) by fitting a line to time-series mass measurements and normalizing by an initial mass predicted by the fit to account for the effect of cell size on growth rate. The electronic controller 155 fits SGR as a function of dose to a sigmoidal dose response curve using a 3-parameter Hill model to extract dose response measurements, as shown by graph 3420 of FIG. 24. […] In some embodiments, EC50 measured by the QPI microscope system 110 is strongly concordant with gold standard techniques such as CTG over 27 conditions (e.g., 9 compounds, 3 breast cancer cell lines). […] As with cell line data, QPI data on cells from PDxO resolves differences in temporal dynamics of response to therapy, as shown in graph 3425 of FIG. 24. […] In some embodiments, the electronic controller 155 is configured to determine a drug response of each of the plurality of treatment samples from patient derived organoids. […]

HCI-037 PDxO cells = assay: QPI on cells from patient-derived organoid HCI-037 (primary lesion); details: HCI-037
Protocol: In some embodiments, the QPI microscope system 110 performs QPI on cells from patient-derived organoids and direct-from-patient samples. For example, the electronic controller 155 analyzes data on cells from a set of 5 organoids representing samples collected from two patients, as illustrated by a workflow 3400 in FIG. 24. The workflow 3400 is an experiment workflow illustrating how assays are analyzed by the QPI microscope system 110. In some embodiments, the QPI microscope system 110 images cells for 48 h, and uses an automatic segmentation algorithm, via the electronic controller 155, to identify individual cells from background, as shown in images 3405 and 3410 of FIG. 24. […] The electronic controller 155 determines the mass of each cell by summing the cell mass over the segmented area. In some embodiments, plots of mass over time reveal single cell growth rates, as shown by graph 3415 of FIG. 24. The graph 3415 is a mass vs. time plot showing DMSO treated cells growing cells at a typical location. Cells outlined in green are shown as green on the plot, other growing cells are shown in purple. The electronic controller 155 determine the specific growth rate (SGR) by fitting a line to time-series mass measurements and normalizing by an initial mass predicted by the fit to account for the effect of cell size on growth rate. The electronic controller 155 fits SGR as a function of dose to a sigmoidal dose response curve using a 3-parameter Hill model to extract dose response measurements, as shown by graph 3420 of FIG. 24. […] In some embodiments, EC50 measured by the QPI microscope system 110 is strongly concordant with gold standard techniques such as CTG over 27 conditions (e.g., 9 compounds, 3 breast cancer cell lines). […] As with cell line data, QPI data on cells from PDxO resolves differences in temporal dynamics of response to therapy, as shown in graph 3425 of FIG. 24. […] In some embodiments, the electronic controller 155 is configured to determine a drug response of each of the plurality of treatment samples from patient derived organoids.
The graphs 3500 includes graph A of the graphs 3500 showing normalized mass vs. time for HCI-037 (primary), HCI-038 (metastatic), and HCI-039 (pleural effusion) showing reduction in growth as concentration increases. Graphs B, C, D, and E of the graphs 3500 show dose response plots showing the differential response between different disease models. Graphs F, G, H, and I of the graphs 3500 show Hellinger distance vs. time plots showing the time of response for the different models treated with various therapies. In some embodiments, HCI-037, HCI-038, and HCI-039, PDxO models are used that are derived from primary lesion, bone metastasis, and pleural effusion, respectively, at different time points from a single patient during the course of treatment and progressive disease. In some embodiments, the electronic controller 155 is configured to determine a difference drug response from patient derived organoids. In some embodiments, the patient derived organoids are tumor organoids.

HCI-038 PDxO cells = assay: QPI on cells from patient-derived organoid HCI-038 (bone metastasis); details: HCI-038
Protocol: In some embodiments, the QPI microscope system 110 performs QPI on cells from patient-derived organoids and direct-from-patient samples. For example, the electronic controller 155 analyzes data on cells from a set of 5 organoids representing samples collected from two patients, as illustrated by a workflow 3400 in FIG. 24. The workflow 3400 is an experiment workflow illustrating how assays are analyzed by the QPI microscope system 110. In some embodiments, the QPI microscope system 110 images cells for 48 h, and uses an automatic segmentation algorithm, via the electronic controller 155, to identify individual cells from background, as shown in images 3405 and 3410 of FIG. 24. […] The electronic controller 155 determines the mass of each cell by summing the cell mass over the segmented area. In some embodiments, plots of mass over time reveal single cell growth rates, as shown by graph 3415 of FIG. 24. The graph 3415 is a mass vs. time plot showing DMSO treated cells growing cells at a typical location. Cells outlined in green are shown as green on the plot, other growing cells are shown in purple. […] In some embodiments, EC50 measured by the QPI microscope system 110 is strongly concordant with gold standard techniques such as CTG over 27 conditions (e.g., 9 compounds, 3 breast cancer cell lines). […]

CC[C@H](NC(=O)[C@H](C)NC)C(=O)N1C[C@@H](O)C[C@H]1Cc1c(-c2[nH]c3cc(F)ccc3c2C[C@@H]2C[C@H](O)CN2C(=O)[C@H](CC)NC(=O)[C@H](C)NC)[nH]c2cc(F)ccc12 [birinapant]
EC50 compared with HCI-037 (HCI-039 PDxO cells): similar | time of response compared with HCI-037 (HCI-039 PDxO cells): much faster time of response | EC50 compared with HCI-039 (HCI-037 PDxO cells): similar | depth of response compared with HCI-039 (HCI-037 PDxO cells): much greater depth of response | response (HCI-038 PDxO cells): no response

From patent publication US20250052985A1, “SYSTEM AND METHOD FOR QUANTITATIVE PHASE IMAGING FOR MULTI-PARAMETRIC SCREENING OF TUMOR THERAPY RESPONSE” (UNIVERSITY OF UTAH RESEARCH FOUNDATION, priority 2023, published 2025)
